Earlier results in patent US7771771B2, “Phytosterol compositions” (Raisio Nutrition Ltd., priority 1998, dated 2010).

Experiments:
[1] = system: LDL cholesterol; settings: children with severe familial hypercholesterolemia; compared with sitosterol
[2] = in words
[3] = system: serum cholesterol; settings: rats; compared with sitosterol
[4] = system: cholesterol content of mixed micelles; settings: compared with sitosterol
[5] = system: serum cholesterol; aortic atheroma; settings: compared with sitosterol

## CC[C@H](CC[C@@H](C)[C@H]1CC[C@H]2[C@@H]3CC[C@H]4C[C@@H](O)CC[C@]4(C)[C@H]3CC[C@]12C)C(C)C [sitostanol]
[1]
  reducing elevated levels of LDL cholesterol: significantly more effective than sitosterol
[2]
  absorption: virtually unabsorbed
[3]
  hypocholesterolemic activity: higher hypocholes-terolemic activity than sitosterol
[4]
  lowering of the cholesterol content of mixed micelles: more efficiently than sitosterol
[5]
  formation of aortic atheroma due to cholesterol feeding: depressed the formation of aortic atheroma due to cholesterol feeding more than did sitosterol
